For experiment [1], the target named is Rat recombinant PDE10a (rPDE10a) (Rattus norvegicus (Rat), UniProt Q9QYJ6). The experiment is described as follows: In vitro assay PDE10a: rat recombinant PDE10a SPA with 3H-cAMP substrate, IC50. Type of experiment: biochemical. The conditions noted are these: 60 nM cAMP, read-out: rPDE10a2 IC50. A digest of the protocol:
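Enzyme expressed in Sf9 cells via baculovirus and Ni-sepharose purified; reaction with 3H-cAMP ran 60 min at rt, stopped with PDE SPA beads. Compounds diluted in DMSO at 100-fold final concentration; blanks omitted enzyme.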

Experiment [2] concerns the target Human recombinant PDE10A2 (Homo sapiens (Human), UniProt Q9Y233). The experiment is described as follows: In vitro hPDE10a: human recombinant PDE10A2 scintillation proximity assay, IC50. In kind it is biochemical. The conditions noted are these: human recombinant PDE10A2, SPA, 60 nM cAMP; read-out: hPDE10a2 IC50. In outline: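 Purified recombinant human PDE10A2 (Ni-sepharose) was assayed by SPA, counting [3H]-AMP product captured on yttrium silicate beads added in zinc sulphate stop solution. Inhibition was expressed as % of activity without compound, with a no-enzyme low control. Repeat data points were aggregated.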
A general note: SPA uses beads or plates that emit light when radiolabelled molecules are held near them.

Molecules are shown by their SMILES. Where a name gives a salt, the structure may show the parent alone.

Sequence of Human recombinant PDE10A2 (Q9Y233 267-1055): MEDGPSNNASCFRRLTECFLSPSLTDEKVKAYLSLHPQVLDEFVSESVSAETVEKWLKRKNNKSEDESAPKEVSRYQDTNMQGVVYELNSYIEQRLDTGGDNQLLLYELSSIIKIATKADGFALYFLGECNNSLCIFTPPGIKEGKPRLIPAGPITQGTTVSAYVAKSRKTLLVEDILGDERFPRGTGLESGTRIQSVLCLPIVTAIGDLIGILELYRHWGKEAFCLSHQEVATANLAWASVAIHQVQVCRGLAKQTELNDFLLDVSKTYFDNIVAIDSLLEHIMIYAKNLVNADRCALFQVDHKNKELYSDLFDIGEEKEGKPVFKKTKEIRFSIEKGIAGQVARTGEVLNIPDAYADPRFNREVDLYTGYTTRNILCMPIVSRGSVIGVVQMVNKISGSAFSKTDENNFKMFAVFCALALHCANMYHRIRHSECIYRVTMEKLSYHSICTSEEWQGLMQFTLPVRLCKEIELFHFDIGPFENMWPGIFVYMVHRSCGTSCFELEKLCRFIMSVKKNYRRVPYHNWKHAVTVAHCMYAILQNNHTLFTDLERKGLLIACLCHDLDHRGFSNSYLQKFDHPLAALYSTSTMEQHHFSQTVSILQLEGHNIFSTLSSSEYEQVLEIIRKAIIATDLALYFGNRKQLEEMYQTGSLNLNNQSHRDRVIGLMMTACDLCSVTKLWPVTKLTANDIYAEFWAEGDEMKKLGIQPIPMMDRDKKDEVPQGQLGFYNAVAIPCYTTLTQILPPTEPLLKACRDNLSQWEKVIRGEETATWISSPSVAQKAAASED
Sequence of Rat recombinant PDE10a (rPDE10a) (Q9QYJ6 whole entry): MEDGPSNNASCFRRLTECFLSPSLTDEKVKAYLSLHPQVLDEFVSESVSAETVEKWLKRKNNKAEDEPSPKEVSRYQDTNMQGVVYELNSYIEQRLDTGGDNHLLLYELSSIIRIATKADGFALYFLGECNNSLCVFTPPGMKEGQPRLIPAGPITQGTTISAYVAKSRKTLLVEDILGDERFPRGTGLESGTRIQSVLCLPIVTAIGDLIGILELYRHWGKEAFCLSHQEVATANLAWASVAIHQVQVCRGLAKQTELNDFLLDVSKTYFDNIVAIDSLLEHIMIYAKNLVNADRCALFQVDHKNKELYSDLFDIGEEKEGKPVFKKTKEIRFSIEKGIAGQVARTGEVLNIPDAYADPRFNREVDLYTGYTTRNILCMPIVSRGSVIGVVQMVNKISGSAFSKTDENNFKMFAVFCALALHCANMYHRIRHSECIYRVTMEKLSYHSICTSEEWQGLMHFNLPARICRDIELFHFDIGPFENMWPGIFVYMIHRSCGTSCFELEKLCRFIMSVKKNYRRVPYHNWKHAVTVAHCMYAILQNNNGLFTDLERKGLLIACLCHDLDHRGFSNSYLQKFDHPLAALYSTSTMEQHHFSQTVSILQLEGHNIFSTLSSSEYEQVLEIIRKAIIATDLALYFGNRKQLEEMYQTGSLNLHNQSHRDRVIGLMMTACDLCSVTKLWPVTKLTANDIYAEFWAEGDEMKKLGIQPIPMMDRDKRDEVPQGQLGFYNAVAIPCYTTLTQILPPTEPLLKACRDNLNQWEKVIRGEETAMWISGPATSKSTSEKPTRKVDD

The term IC50 denotes the concentration at which inhibition is half-maximal. Regarding `C(#Cc1cn2nccc(N3CCOCC3)c2n1)c1ccc2ccccc2n1` [Cpd 84, 2-[(8-Morpholin-4-ylimidazo[1,2-b]pyridazin-2-yl)ethynyl]quinoline], the IC50 in experiment [1] and in experiment [2] was less than 1 nM throughout.
On to `C(=C\c1nc2c(N3CCOCC3)ccnn2c1-c1ccc(Sc2cnn[nH]2)nc1)/c1ccc2ccccc2n1` [Cpd 23, 2-[(E)-2-{8-Morpholin-4-yl-3-[6-(1H-1,2,3-triazol-5-ylsulfanyl)pyridin-3-yl]imidazo[1,2-b]pyridazin-2-yl}ethenyl]quinoline], for which the IC50 in experiment [1] was determined as 6 nM; in experiment [2], 8 nM.
The corresponding values for `O=C(O)c1ccc(-c2c(/C=C/c3ccc4ccccc4n3)nc3c(N4CCOCC4)ccnn23)nc1` [compound 113, (E)-6-(8-Morpholino-2-(2-(quinolin-2-yl)vinyl)imidazo[1,2-b]pyridazin-3-yl)nicotinic acid] are 2 nM and 2 nM.
Turning to `CN1CC=C(c2ccc(-c3c(COc4ccc5ccccc5n4)nc4c(N5CCOCC5)ccnn34)cn2)CC1` [Cpd 10, 4-(3-(1′-methyl-1′,2′,3′,6′-tetrahydro-[2,4′-bipyridin]-5-yl)-2-((quinolin-2-yloxy)methyl)imidazo[1,2-b]pyridazin-8-yl)morpholine], the IC50 in experiment [1] stood at 17 nM; in experiment [2], 43 nM.
The corresponding values for `O=C(O)c1cccc(-c2c(C#Cc3ccc4ccccc4n3)nc3c(N4CCOCC4)ccnn23)c1` [Cpd 88, 3-(8-Morpholino-2-(quinolin-2-ylethynyl)imidazo[1,2-b]pyridazin-3-yl)benzoic acid trifluoroacetic acid salt] are less than 1 nM and less than 1 nM.
In the same order, the values of `CS(=O)(=O)Nc1ccc(-c2c(CCc3ccc4ccccc4n3)nc3c(N4CCOCC4)ccnn23)cc1` [compound 45, N-(4-(8-Morpholino-2-(2-(quinolin-2-yl)ethyl)imidazo[1,2-b]pyridazin-3-yl)phenyl)methanesulfonamide] are 5 nM and 8 nM.
Regarding `O=C(O)c1ccc(-c2c(C#Cc3cccc(C(F)(F)F)n3)nc3c(N4CCOCC4)ccnn23)cc1` [Cpd 111, 4-(8-Morpholino-2-((6-(trifluoromethyl)pyridin-2-yl)ethynyl)imidazo[1,2-b]pyridazin-3-yl)benzoic acid], the IC50 in experiment [1] is 17 nM; in experiment [2], roughly 18 nM.
The corresponding values for `CC(C)[C@H](NC(=O)c1ccc(-c2c(CCc3ccc4ccccc4n3)nc3c(N4CCOCC4)ccnn23)cc1)C(=O)O` [Cpd 75, N-({4-[8-Morpholin-4-yl-2-(2-quinolin-2-ylethyl)imidazo[1,2-b]pyridazin-3-yl]phenyl}carbonyl)-L-valine] are 7 nM and 4 nM.
The corresponding values for `Nc1ccc(-c2c(/C=C/c3ccc4ccccc4n3)nc3c(N4CCOCC4)ccnn23)cn1` [Cpd 18, (E)-5-(8-Morpholino-2-(2-(quinolin-2-yl)vinyl)imidazo[1,2-b]pyridazin-3-yl)pyridin-2-amine] are 3 nM and 6 nM.
`NS(=O)(=O)c1ccc(-c2c(CCc3ccc4ccccc4n3)nc3c(N4CCOCC4)ccnn23)cc1` [compound 38, 4-(8-Morpholino-2-(2-(quinolin-2-yl)ethyl)imidazo[1,2-b]pyridazin-3-yl)benzenesulfonamide]: the results for the IC50 in experiment [1] and in experiment [2] were 4 nM and 7 nM, respectively.
In the same order, the values of `O=C(O)c1ccc(-c2c(CCc3ccc4ccccc4n3)nc3c(N4CCOCC4)ccnn23)s1` [compound 61, 5-(8-Morpholino-2-(2-(quinolin-2-yl)ethyl)imidazo[1,2-b]pyridazin-3-yl)thiophene-2-carboxylic acid] are less than 1 nM and less than 1 nM.
Consider `Cn1nc(-c2ccc(-c3c(CCc4ccc5ccccc5n4)nc4c(N5CCOCC5)ccnn34)cc2)[nH]c1=O` [Cpd 78, 1-Methyl-3-[4-[8-(morpholin-4-yl)-2-[2-(quinolin-2-yl)ethyl]imidazo[1,2-b]pyridazin-3-yl]phenyl]-4,5-dihydro-1H-1,2,4-triazol-5-one], for which the figures for the IC50 in experiment [1] and in experiment [2] were 20 nM and 15 nM, respectively.
As to `O=C(O)c1ccc(-c2c(/C=C/c3ccc4ccccc4n3)nc3c(N4CCOCC4)ccnn23)s1` [Cpd 57, (E)-5-(8-Morpholino-2-(2-(quinolin-2-yl)vinyl)imidazo[1,2-b]pyridazin-3-yl)thiophene-2-carboxylic acid], the IC50 in experiment [1] and in experiment [2] was 1 nM each time.
In the case of `COc1cccc(-c2c(/C=C/c3ccc4c(C(=O)NS(C)(=O)=O)cccc4n3)nc3c(N4CCOCC4)ccnn23)c1` [Cpd 150, (E)-2-(2-(3-(3-Methoxyphenyl)-8-morpholinoimidazo[1,2-b]pyridazin-2-yl)vinyl)-N-(methylsulfonyl)quinoline-5-carboxamide], the IC50 in experiment [1] and in experiment [2] was 6 nM each time.
For the molecule `O=C(O)c1ccc(-c2c(C#Cc3nc4ccccc4[nH]3)nc3c(N4CCOCC4)ccnn23)cc1` [Cpd 108, 4-(2-((1H-Benzo[d]imidazol-2-yl)ethynyl)-8-morpholinoimidazo[1,2-b]pyridazin-3-yl)benzoic acid], the 50% inhibitory concentration (IC50) in experiment [1] and in experiment [2] was less than 1 nM in each case.
As for `O=S(=O)(Cc1nc2c(N3CCOCC3)ccnn2c1-c1ccc(N2CCNCC2)nc1)c1ccc2ccccc2n1` [Cpd 9, 4-(3-(6-(piperazin-1-yl)pyridin-3-yl)-2-((quinolin-2-ylsulfonyl)methyl)imidazo[1,2-b]pyridazin-8-yl)morpholine trifluoroacetic acid salt], the IC50 in experiment [1] stood at 132 nM; in experiment [2], 427 nM.
In the same order, the values of `Oc1c(F)cc(-c2c(CCc3ccc4ccccc4n3)nc3c(N4CCOCC4)ccnn23)cc1F` [compound 81, 2,6-Difluoro-4-(8-morpholino-2-(2-(quinolin-2-yl)ethyl)imidazo[1,2-b]pyridazin-3-yl)phenol] are 4 nM and 1 nM.
In the same order, the values of `O=C(O)c1cccc2nc(/C=C/c3cn4nccc(N5CCOCC5)c4n3)ccc12` [Cpd 115, 2-[(E)-2-(8-Morpholin-4-ylimidazo[1,2-b]pyridazin-2-yl)ethenyl]quinoline-5-carboxylic acid] are 1 nM and 1 nM.
In the same order, the values of `CCN(CC)c1ccc(-c2c(COc3ccc4ccccc4n3)nc3c(N4CCOCC4)ccnn23)cn1` [Cpd 7, N,N-diethyl-5-(8-morpholino-2-((quinolin-2-yloxy)methyl)imidazo[1,2-b]pyridazin-3-yl)pyridin-2-amine methane sulfonic acid] are 447 nM and 692 nM.
Regarding `O=c1[nH]nnn1-c1ccc(-c2c(CCc3ccc4ccccc4n3)nc3c(N4CCOCC4)ccnn23)cc1` [Cpd 62, 1-(4-(8-Morpholino-2-(2-(quinolin-2-yl)ethyl)imidazo[1,2-b]pyridazin-3-yl)phenyl)-1H-tetrazol-5(4H)-one], the IC50 in experiment [1] came out at 9 nM; in experiment [2], 4 nM.
In the case of `O=C(O)CCC(=O)Nc1ccc(-c2c(CCc3ccc4ccccc4n3)nc3c(N4CCOCC4)ccnn23)cc1` [compound 49, 4-((4-(8-Morpholino-2-(2-(quinolin-2-yl)ethyl)imidazo[1,2-b]pyridazin-3-yl)phenyl)amino)-4-oxobutanoic acid], the IC50 in experiment [1] and in experiment [2] was 4 nM throughout.

The values above are taken from patent publication US9193736B2, “PDE 10a inhibitors for the treatment of type II diabetes” (Janssen Pharmaceutica, NV, priority 2013, dated 2015).
